Laboratory results: patent EP0604800A1, “4- 4- 4-(carboxyalkyl)-phenyl amino carbonyl -phenyl -piperedines as aggregation inhibitors” (Dr. Karl Thomae GmbH, priority 1992, dated 1994)
Where a name gives a salt, the structure may show the parent alone.

Key:
Thrombozytenaggregation = test: Collagen-induced platelet aggregation in platelet-rich plasma (Born and Cross); format: cell-based, Versuchspersonen; conditions: 10 min preincubation at 37°C, half-maximal inhibition of change in optical density, read-out: Hemmung der Plättchenaggregation EC₅₀ (converted)
Excerpt: 2. Antithrombotische Wirkung Methodik Die Thrombozytenaggregation wird nach der Methode von Born und Cross (J. Physiol. 170, 397 (1964)) in plättchenreichem Plasma gesunder Versuchspersonen gemessen. Zur Gerinnungshemmung wird das Blut mit Natriumcitrat 3,14 % im Volumenverhältnis 1:10 versetzt. Collagen-induzierte Aggregation Der Verlauf der Abnahme der optischen Dichte der Plättchen-Suspension wird nach Zugabe der aggregationsauslösenden Substanz photometrisch gemessen und registriert. Aus dem Neigungswinkel der Dichtekurve wird auf die Aggregationsgeschwindigkeit geschlossen. Der Punkt der Kurve, bei dem die größte Lichtdurchlässigkeit vorliegt, dient zur Berechnung der "optical density". Die Collagen-Konzentration wird möglichst gering gewählt, aber doch so, daß sich eine irreversibel verlaufende Reaktionskurve ergibt. Verwendet wird das handelsübliche Collagen der Firma Hormonchemie, München. Vor der Collagen-Zugabe wird das Plasma jeweils 10 Minuten mit der Substanz bei 37°C inkubiert. Aus den Konzentrations-Wirkungskurven wird die EC₅₀ berechnet, die die Konzentration beschreibt, bei der die Änderung der "optical density" halbmaximal gehemmt ist.

Humanthrombozyten = test: Competitive binding of ³H-BIBU 52 / test substance to human platelets; conditions: platelet suspension in plasma, ³H-BIBU 52 5 nM, 20 min at room temperature; read-out: Kompetitive Bindung ³H-BIBU 52/Textsubstanz an Humanthrombozyten IC₅₀ (converted)
Excerpt: 1. Kompetitive Bindung ³H-BIBU 52/Testsubstanz an Humanthrombozyten:
Eine Suspension von Humanthrombozyten in Plasma wird mit ³H-BIBU 52 [= (3S,5S)-5-[(4'-Amidino-4-biphenylyl)oxymethyl]-3-[(carboxyl)methyl]-2-pyrrolidinon[3-³H-4-biphenylyl]), das den literaturbekannten Liganden ¹²⁵ I-Fibrinogen ersetzt, (siehe deutsche Patentanmeldung P 42 14 245.8 der gleichen Anmelderin vom 30. 04. 1992, internes Zeichen: Case 5/1093-FL) und verschiedenen Konzentrationen der zu testenden Substanz inkubiert. Der freie und gebundene Ligand wird durch Zentrifugation getrennt und durch Szintillationszählung quantitativ bestimmt. Aus den Meßwerten wird die Hemmung der ³H-BIBU 52-Bindung durch die Testsubstanz bestimmt.
Hierzu wird aus einer Antikubitalvene Spenderblut entnommen und mit Trinatriumzitrat antikoaguliert (Endkonzentration 13 mM). Das Blut wird 10 Minuten bei 170 x g zentrifugiert und das überstehende plättchenreiche Plasma (PRP) abgenommen. Das Restblut wird zur Gewinnung von Plasma nocheinmal scharf abzentrifugiert. Das PRP wird mit autologem Plasma 1:10 verdünnt. 750 µl werden mit 50 µl physiologischer Kochsalzlösung, 100 µl Testsubstanzlösung, 50 µl ¹⁴C-Sucrose (3.700 Bq) und 50 µl ³H-BIBU 52 (Endkonzentration: 5 nM) bei Raumtemperatur 20 Minuten inkubiert. Zur Messung der unspezifischen Bindung wird anstelle der Testsubstanz 5 µl BIBU 52 (Endkonzentration: 30 µM) eingesetzt. Die Proben werden 20 Sekunden bei 10000 x g zentrifugiert und der Überstand abgezogen. 100 µl hiervon werden zur Bestimmung des freien Liganden gemessen. Das Pellet wird in 500 µl 0,2N NaOH gelöst, 450 µl werden mit 2 ml Szintillator und 25 µl 5N HCl versetzt und gemessen. Das im Pellet noch verbliebene Restplasma wird aus dem ¹⁴C-Gehalt bestimmt, der gebundene Ligand aus der ³H-Messung. Nach Abzug der unspezifischen Bindung wird die Pelletaktivität gegen die Konzentration der Testsubstanz aufgetragen und die Konzentration für eine 50%ige Hemmung der Bindung ermittelt.

[1] = system: Collagen-induzierte Thrombozytenaggregation; test: Ex vivo inhibition of collagen-induced platelet aggregation after oral administration; format: in vivo, Rhesusaffen; conditions: 1 mg/kg, Rhesus monkeys, collagen 2 µg/ml
Excerpt: Die Hemmung der Thrombozytenaggregation nach oraler Gabe der Prüfsubstanz wird ex vivo an Rhesusaffen ermittelt.
Direkt vor der oralen Verabreichung der in Natrosol suspendierten Prüfsubstanz wird den Tieren eine Blutprobe aus der Kubitalvene als Referenzwert entnommen. Zu definierten Zeiten nach der Substanzgabe werden erneut Blutproben gewonnen und wie folgt untersucht.
Das mit 3,14% Natriumcitrat im Volumenverhältnis 1:10 versetzte Vollblut wird mit 200 g für 15 Minuten zentrifugiert. Der Überstand an plättchenreichem Plasma wird vorsichtig abgehoben. Aus dem erythrozytenreichen Sediment wird durch Zentrifugation mit 4000 g für 10 Minuten das plättchenarme Plasma als Überstand gewonnen.
Die mit Collagen (Hormonchemie, München; 2 µg/ml Endkonzentration im plättchenreichen Plasma) ausgelöste Thrombozytenaggregation in diesen ex vivo Proben wird nach der Methode von Born und Cross (J. Physiol. 170, 397 (1964)) photometrisch gemessen. Die nach Collagenstimulation gemessene größte Lichtdurchlässigkeit des plättchenreichen Plasmas wird mit dem Referenzwert verglichen, um die Hemmung der Aggregation zu den verschiedenen Zeitpunkten der Blutentnahme nach Substanzgabe relativ zum Referenzwert zu bestimmen.

[2] = Tolerability after intravenous administration to mice; format: in vivo, Mäusen; conditions: 30 mg/kg, 3 mice each

Row | Structure (SMILES) | EC50 (Thrombozytenaggregation) | IC50 (Humanthrombozyten) | Dauer der Hemmung der Collagen-induzierten Thrombozytenaggregation ex vivo [1] | gestorbene Tiere [2]
1 | CCCCS(=O)(=O)NC(Cc1ccc(NC(=O)c2cccc(C3CCNCC3)c2)cc1)C(=O)OC.Cl (stereo not shown) [5(2), 4-[3-[[4-[2-(n-Butansulfonylamino)-2-(methoxycarbonyl)-ethyl]-phenyl]-aminocarbonyl]-phenyl]-piperidin-hydrochlorid] | – | – | > 2 Stunden | –
2 | Cl.O=C(O)CC[C@H]1CC[C@H](NC(=O)c2ccc(C3CCNCC3)cc2)CC1 [Beispiel 3, 4-[4-[[trans-4-(2-Carboxy-ethyl)-cyclohexyl]-aminocarbonyl]-phenyl]-piperidin-hydrochlorid] | 260 nM | 190 nM | – | keine Tieren gestorben
3 | COC(=O)CC[C@H]1CC[C@H](NC(=O)c2cccc(C3CCNCC3)c2)CC1 [Beispiel 5, 4-[3-[[trans-4-[2-(Methoxycarbonyl)-ethyl]-cyclohexyl]-aminocarbonyl]-phenyl]-piperidin-hydrochlorid] | 5600 nM | 2900 nM | – | –
4 | COC(=O)CC[C@H]1CC[C@H](NC(=O)c2ccc(C3CCNCC3)cc2)CC1.Cl [Beispiel 2, 4-[4-[[trans-4-[2-(Methoxycarbonyl)-ethyl]-cyclohexyl]-aminocarbonyl]-phenyl]-piperidin-hydrochlorid] | 840 nM | 1100 nM | > 2 Stunden | keine Tieren gestorben

Second part, led by results:

Row | EC50 (Thrombozytenaggregation) | IC50 (Humanthrombozyten) | Structure (SMILES) | Dauer der Hemmung der Collagen-induzierten Thrombozytenaggregation ex vivo [1] | gestorbene Tiere [2]
5 | 2400 nM | 1400 nM | O=C(O)CCc1ccc(NC(=O)c2ccc(C3CCNCC3)cc2)cc1 [Beispiel 3.1, 4-[4-[[4-(2-Carboxy-ethyl)-phenyl]-aminocarbonyl]-phenyl]-piperidin-hydrochlorid] | – | –
6 | 5800 nM | 2000 nM | O=C(O)CC[C@H]1CC[C@H](NC(=O)c2cccc(C3CCNCC3)c2)CC1 [Beispiel 3.4, 4-[3-[[trans-4-(2-Carboxy-ethyl)-cyclohexyl]-aminocarbonyl]-phenyl]-piperidin-hydrochlorid] | – | –
7 | 3300 nM | > 100000 nM | COC(=O)CCc1ccc(NC(=O)c2ccc(C3CCNCC3)cc2)cc1 [Beispiel 2.1, 4-[4-[[4-[2-(Methoxycarbonyl)-ethyl]-phenyl]-aminocarbonyl]-phenyl]-piperidin-hydrochlorid] | – | –
8 | 3300 nM | 4500 nM | CCCCS(=O)(=O)NC(Cc1ccc(NC(=O)c2ccc(C3CCNCC3)cc2)cc1)C(=O)OC (stereo not shown) [Beispiel 2.2, 4-[4-[[4-[2-(n-Butansulfonylamino)-2-(methoxycarbonyl)-ethyl]-phenyl]-aminocarbonyl]-phenyl]-piperidin-hydrochlorid] | – | –
9 | 260 nM | 17 nM | CCCCS(=O)(=O)NC(Cc1ccc(NC(=O)c2ccc(C3CCNCC3)cc2)cc1)C(=O)O (stereo not shown) [Beispiel 3.3, 4-[4-[[4-[2-(n-Butansulfonyl-amino)-2-carboxy-ethyl]-phenyl]-aminocarbonyl]-phenyl]-piperidin-hydrochlorid] | – | –
10 | 120 nM | 14 nM | CCCCS(=O)(=O)NC(Cc1ccc(NC(=O)c2cccc(C3CCNCC3)c2)cc1)C(=O)O (stereo not shown) [Beispiel 3.6, 4-[3-[[4-[2-(n-Butansulfonylamino)-2-carboxy-ethyl]-phenyl]-aminocarbonyl]-phenyl]-piperidin-hydrochlorid] | – | –
